Measured values taken from patent publication US20220202783A1, “Use Of ADAM9 Inhibitor As Immunomodulator” (China Medical University, priority 2019, published 2022).

What was measured:
lung cancer cells (A549) = assay: cytotoxicity assay in A549 cells; assay type: cell-based; design: key to effect of inhibiting tumor cell growth: “+” represents that the compound has the effect of inhibiting tumor cell growth; details: for IC50: Homo sapiens
How it was run: (§1)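 Cytotoxicity assay; readout IC50 per compound of Formula (I).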

[1] = system: lung cancer cells (H1299); assay: cytotoxicity assay in H1299 cells; assay type: cell-based; design: key to effect of inhibiting tumor cell growth: “+” represents that the compound has the effect of inhibiting tumor cell growth; details: for effect of inhibiting tumor cell growth: H1299; for IC50: Homo sapiens, NCI-H1299
How it was run: as §1

[2] = system: breast cancer cells (231-brm); assay: cytotoxicity assay in 231-brm cells; assay type: cell-based; design: key to effect of inhibiting tumor cell growth: “+” represents that the compound has the effect of inhibiting tumor cell growth
ADAM17 = ADAM17 (Homo sapiens, UniProt P78536); assay: inhibition of ADAM17 activity; assay type: biochemical; details: different concentrations
Sequence of ADAM17 (P78536 215-824, species assumed): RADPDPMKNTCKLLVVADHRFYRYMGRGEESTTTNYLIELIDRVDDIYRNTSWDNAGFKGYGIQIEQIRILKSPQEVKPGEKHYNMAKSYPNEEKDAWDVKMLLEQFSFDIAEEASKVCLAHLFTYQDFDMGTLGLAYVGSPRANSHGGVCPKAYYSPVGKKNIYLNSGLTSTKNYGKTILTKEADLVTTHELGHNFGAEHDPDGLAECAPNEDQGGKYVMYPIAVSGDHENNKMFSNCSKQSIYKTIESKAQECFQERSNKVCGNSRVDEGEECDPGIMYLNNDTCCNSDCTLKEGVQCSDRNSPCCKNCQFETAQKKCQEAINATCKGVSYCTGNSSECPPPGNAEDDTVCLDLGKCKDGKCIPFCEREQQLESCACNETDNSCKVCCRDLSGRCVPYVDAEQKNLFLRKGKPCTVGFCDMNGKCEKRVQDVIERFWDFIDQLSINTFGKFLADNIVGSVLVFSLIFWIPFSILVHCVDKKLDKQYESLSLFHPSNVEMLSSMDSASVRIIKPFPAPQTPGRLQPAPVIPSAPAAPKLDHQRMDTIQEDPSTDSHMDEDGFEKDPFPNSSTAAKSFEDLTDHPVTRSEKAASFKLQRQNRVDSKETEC

[3] = system: lung cancer brain metastatic cell line-Bm7brmx2; assay: anoikis in anchorage-free culture, Bm7brmx2; assay type: cell-based; details: read-out: IC50 value for anoikis (anchorage-free induced apoptosis)
Experimental: To ensure the compound SW1 and the compound SW2 in blocking anoikis-resistance of cancer cells, the IC50 value (unit is μM) of the compound SW1 and the compound SW2 for anoikis (anchorage-free induced apoptosis) in lung cancer brain metastatic cell line-Bm7brmx2, breast cancer brain metastatic cell line-MDA-231 brm and leukocytes in anchorage-free culture conditions were determined.

[4] = system: control Bm7 lung cancer cells; assay: colony-forming assay, Bm7; assay type: cell-based; details: 20 μM, control Bm7 lung cancer cells (shGFP)
Experimental: To further test the planting efficiency of tumor cells treated with the compound SW1 and the compound SW2, in the experiment, control Bm7 lung cancer cells (treated with shGFP) and ADAM9 KO Bm7 lung cancer cells (treated with shADAM9) were treated with 20 μM of the compound SW1 or the compound SW2 respectively, and TC1-wild-type (WT) lung cancer cells and TC1-ADAM9 KO lung cancer cells were treated with 10 μM of the compound SW1 or the compound SW2 respectively. Then colony-forming assay was used to confirm the planting efficiency of each test group. Please refer to FIGS. 2D and 2E, wherein mock represents the tumor cell lines without treatment of the compound SW1 or the compound SW2. Representative images of colony-forming assay are shown at the bottom, and data are means±SD of 6 separate wells.

MiaPaCa = assay: cytotoxicity on pancreatic cancer cells, MiaPaCa; assay type: cell-based; details: Homo sapiens, MIA PaCa-2
Experimental: (§2) In addition, the IC50 values (unit is μM) of the compound SW1 and the compound SW2 on pancreatic cancer cells were measured in the experiment.

PC-080 = assay: cytotoxicity on pancreatic cancer cells, PC-080; assay type: cell-based; details: Pancreatic cancer cell
Experimental: as §2

Bm7 lung cancer cells = assay: tumor sphere formation; assay type: cell-based; details: 25 μM, 12 hours
Experimental: In the experiment, the Bm7 lung cancer cells were treated with 25 μM of the compound SW1 or the compound SW2 for 12 hours, and the number of tumor spheres formed was determined. Please refer to FIG. 2H, where mock represents Bm7 lung cancer cells without treatment.

TC1-WT lung cancer cells = assay: subcutaneous lung tumor mouse model; assay type: in vivo, C57BL/6 mice; details: 10 mg/kg subcutaneous injection once a day, Day 15 to Day 24, vs DMSO control
Experimental: In order to further evaluate whether the treatment of ADAM9 inhibitors will give the same results as the ADAM9 gene knockout, TC1-WT lung cancer cells were injected subcutaneously into C57BL/6 mice with normal immunity to establish a subcutaneous lung tumor mouse model, and the ADAM9 inhibitor (the compound SW1, 10 mg/kg) was treated by subcutaneous injection. From Day 15 to Day 24, the compound SW1 was injected once a day for […]. The tumor volume was observed on Day 12, Day 20 and Day 27, respectively. […] The control group was injected with DMSO as a control for the treatment of the ADAM9 inhibitor.

[5] = system: TC1 subcutaneous lung tumor; assay: co-treatment of ADAM9 inhibitor and checkpoint inhibitor, CD8+ T cells to TReg ratio in tumors; assay type: in vivo, mice; details: co-treated with anti-PDL1 antibody; vs vehicle, SW1 alone or anti-PDL1 antibody alone
Experimental: To further analyze whether the ADAM9 inhibitor and the checkpoint inhibitor have a synergistic effect, in the experiment, TC1 subcutaneous lung tumor mice were treated alone with the ADAM9 inhibitor (the compound SW1), the checkpoint inhibitor (anti-PDL1 antibody) or co-treated with the ADAM9 inhibitor (the compound SW1) and the checkpoint inhibitor (anti-PDL1 antibody), and the ratio of CD8^+ T cells and regulatory T cells (TReg) in tumors of TC1 subcutaneous lung tumor mice was analyzed. The experiment also included a control group treated with vehicle (DMSO).

[6] = system: human colon cancer cells SW620; assay: cytokine RNA expression by RT-qPCR, SW620; assay type: cell-based; details: 12.5 μM, 24 hours
Experimental: (§3) We further analyzed whether the treatment of the ADAM9 inhibitor can stimulate tumor cells to secrete cytokines to activate the anti-tumor immunity of the ADAM9 inhibitor. In the experiment, human colon cancer cells SW620 and human pancreatic cancer cells PANC-1 were treated with 12.5 μM of the compound SW1, and human esophageal cancer cells C[…] were treated with 5 μM of the compound SW1. After 24 hours, the cells were collected and the RNA expression levels of CXCL10, CXCL11, CXC3CL1 and IFNB were detected by RT-qPCR. CXCL10, CXCL11 and […] are cytokines that promote the immune response of CD8^+ T cells, and IFNB is a cytokine with anti-cancer effects. Please refer to FIGS. 10A, 10B and 10C, which show the analysis results of the ADAM9 inhibitor stimulated tumor cells to secrete cytokines.

[7] = system: human pancreatic cancer cells PANC-1; assay: cytokine RNA expression by RT-qPCR, PANC-1; assay type: cell-based; details: 12.5 μM, 24 hours
Experimental: as §3

[8] = system: human esophageal cancer cells CE146T; assay: cytokine RNA expression by RT-qPCR, CE146T; assay type: cell-based; details: 5 μM, 24 hours
Experimental: as §3

O=C(Nc1nc(CCN2C(=O)c3ccccc3C2=O)cs1)c1cc2ccccc2s1 [SW2]
effect of inhibiting tumor cell growth (lung cancer cells (A549)): +
IC50 (lung cancer cells (A549)): 458 µM
effect of inhibiting tumor cell growth [1]: +
IC50 [1]: 32 µM
IC50 [2]: 7.55 µM
effect of inhibiting tumor cell growth [2]: +
inhibition of ADAM17 activity (ADAM17): no inhibitory effects
IC50 [3]: 27 µM
planting efficiency, colony-forming assay [4]: greatly reduce the planting efficiency
IC50 (MiaPaCa): 8.5 µM
IC50 (PC-080): 89.6 µM
number of tumor spheres formed (Bm7 lung cancer cells): greatly reduce the number of tumor spheres

O=C1c2ccccc2C(=O)N1CCc1csc(Nc2nc(CCN3C(=O)c4ccccc4C3=O)cs2)n1 [SW1]
effect of inhibiting tumor cell growth (lung cancer cells (A549)): +
IC50 (lung cancer cells (A549)): 434 µM
effect of inhibiting tumor cell growth [1]: +
IC50 [1]: 76.9 µM
IC50 [2]: 4.5 µM
effect of inhibiting tumor cell growth [2]: +
inhibition of ADAM17 activity (ADAM17): no inhibitory effects
IC50 [3]: 20 µM
planting efficiency, colony-forming assay [4]: greatly reduce the planting efficiency
IC50 (PC-080): 446 µM
number of tumor spheres formed (Bm7 lung cancer cells): greatly reduce the number of tumor spheres
tumor growth (tumor volume) (TC1-WT lung cancer cells): reduces tumor growth
ratio of CD8+ T cells to regulatory T cells (TReg) in tumors [5]: increased significantly
RNA expression levels of CXCL10, CXCL11, CXC3CL1 and IFNB [6]: increase the expressions of CXCL10, CXCL11, CXC3CL1 and IFNB
RNA expression levels of CXCL10, CXCL11, CXC3CL1 and IFNB [7]: increase the expressions of CXCL10, CXCL11, CXC3CL1 and IFNB
RNA expression levels of CXCL10, CXCL11, CXC3CL1 and IFNB [8]: increase the expressions of CXCL10, CXCL11, CXC3CL1 and IFNB
